Results from patent US20160303127A1, “COMBINATION THERAPY WITH C-MET AND EGFR ANTAGONISTS” (Genentech, Inc., priority 2008, published 2016).
Several values for one entry are separate records, joined by “and”; a condition that tells them apart may be missing. Equal entries are not always repeated. Entries after “also recorded” stand apart in the source; their conditions may differ.

What was measured:
NCI-H596 cells = assay: NCI-H596 cell viability assay (Celltiter-Glo) with TGFα +/- HGF; format: cell-based, human
Protocol: Cells: NCI-H596 cells were obtained from the American Type Culture Collection (ATCC) and were maintained in RPMI 1640 supplemented with 10% fetal bovine serum (FBS; Sigma, St. Louis, Mo.), and 2 mM L-glutamine. Cell assay media was changed as described below depending upon the experiment.
Therapeutics and Growth factors: Erlotinib and MetMAb were from Genentech, Inc., as described above. HGF and TGFα were generated at Genentech.
Cell Viability Assays: For cell viability assays, cells were plated in quadruplicate at 1×10^3 cells per well in 384-well plates in RPMI containing 0.5% FBS (assay medium) overnight, prior to stimulation with assay medium containing 3 nM TGF-a+/−HGF. Erlotinib was added at multiple concentrations and 72 hours later, cell viability was measured using the Celltiter-Glo Luminescent Cell Viability Assay (Promega, Madison, Wis.).
To determine whether activation of the c-met pathway could change the response of NCI-N596 cells to erlotinib, cells were stimulated with TGFα, treated with erlotinib and/or HGF, then cell viability was assayed.

Akt = assay: phospho-Akt in NCI-H596 hu-HGF-Tg-SCID xenograft tumors (immunoblot); format: in vivo, human; conditions: MetMAb 30 mg/kg 24 h, erlotinib 150 mg/kg 6 h prior to harvest, average of 5 animals
Protocol: NCI-H596 hu-HGF-Tg-SCID xenograft tumors: NCI-H596 xenografts were established in hu-HGF-Tg-SCID mice as described in Example 4. Tumors were allowed to grow to 200-300 mm^3 prior to treatment. Dosing was performed as described in Table 8. Briefly, MetMAb (30 mg/kg) or MetMAb buffer was dosed at time zero hours (0 hr) and methylcellulose tween vehicle (MCT) or erlotinib (150 mg/kg) was dosed at time 18 hours (18 hr). Mice were euthanized and tumors and plasma collected at time 24 hours (24 hr). Tumors were snap frozen in liquid nitrogen and then kept at −70° C. until they were processed for immunoprecipitation and immunoblotting.
Immunoprecipitations and Immunoblotting: To process tumors for protein analysis, tumors were first homogenized using a glass dounce with lysis buffer (Cell Signaling Technology, Inc., Danvers, Mass.), supplemented with 1 mM PMSF, additional protease inhibitor cocktail, and phosphatase inhibitor cocktail I and II (Sigma, Inc., St. Louis, Mo.). […] Protein concentrations were determined using the BCA™ Protein Assay Kit (Pierce, Inc., Rockford, Ill.) and samples were immunoblotted. […] Samples were then analyzed by SDS-PAGE and immunoblotting. […] Immunoblots were imaged and phospho-protein levels were quantified and normalized to total protein levels (e.g. pEGFR over total EGFR) using an Odyssey imager (LI-COR Biosciences, Lincoln, Nebr.). […]

Molecule | sensitivity (response) of cells to erlotinib in the presence of HGF (NCI-H596 cells; TGFα plus HGF 0.5 to 50 ng/ml, 72 hours) | cell viability when grown in the presence of erlotinib and TGFα (NCI-H596 cells; TGFα, no HGF) | pAkt/total Akt (Akt; listed as Erlotinib) | effect of MetMAb on erlotinib sensitivity (cell viability) (NCI-H596 cells; TGFα and HGF (50 ng/ml), MetMAb 1 μM, varying erlotinib) | pAkt/total Akt (Akt)
C#Cc1cccc(Nc2ncnc3cc(OCCOC)c(OCCOC)cc23)c1 [erlotinib, N-(3-ethynylphenyl)-6,7-bis(2-methoxyethoxy)-4-quinazolinamine] | Reduction in relative response; also recorded: dramatically reduced in a dose-dependent manner; also recorded: attenuated response | reduced cell viability | 45% (+/−25.7%) % of vehicle control and 45 (±25.7) % of vehicle control |  | 
MetMAb: Anti-c-met monovalent monoclonal antibody MetMAb (rhuOA5D5v2) (WO2007/063816) (antibody, chains of the INN, looked up, V domains shown, one-armed) VH: EVQLVESGGGLVQPGGSLRLSCAASGYTFTSYWLHWVRQAPGKGLEWVGMIDPSNSDTRFNPNFKDRFTISADTSKNTAYLQMNSLRAEDTAVYYCATYRSYVTPLDYWGQGTLVTVSS VL: DIQMTQSPSSLSASVGDRVTITCKSSQSLLYTSSQKNYLAWYQQKPGKAPKLLIYWASTRESGVPSRFSGSGSGTDFTLTISSLQPEDFATYYCQQYYAYPWTFGQGTKVEIK |  |  |  | dramatically restored erlotinib sensitivity | 72% (+/−27.9%) % of vehicle control and 72 (±27.9) % of vehicle control
